Data from US20200397816A1, “METHODS TO TREAT INFLAMMATORY AND SMOOTH MUSCLE CELL PROLIFERATION DISORDERS” (THE TRUSTEES OF INDIANA UNIVERSITY, priority 2019, published 2020).

How the values were obtained:
[1] = test system: EGR1; assay: EGR1 transcripts qRT-PCR in RAW 264.7 macrophages; format: cell-based, mouse; settings: 10 μM pretreatment, EMAP II 45 minutes, normalized against Hprt1
Procedure: (§1) RAW 264.7 (ATCC) mouse macrophages and Human Embryonic Kidney (HEK) 293T cells were cultured in DMEM media with 10% fetal bovine serum […] and glutamine HEPES buffer and beta-mercaptoethanol were added to the growth medium used for RAW 264.7 macrophages. […]
(§2) Total RNA was extracted with TriZol using standard RNA extraction protocol and reverse transcribed with SuperScript III Reverse Transcriptase (Thermo Fischer Scientific). SphK1, Tnf, Il6, EGR1, Gapdh, Hprt1 transcripts were quantified using PrimePCR SYBR Green assays from BioRad. […]
(§3) Total RNA was extracted with TriZol using standard RNA extraction protocol and reverse transcribed with SuperScript III Reverse Transcriptase (Thermo Fisher Scientific). SPHK1, Tnf, Il6, EGR1, Gapdh, Hprt1 transcripts were quantified using PrimePCR SYBR Green assays from BioRad.

[2] = test system: EGR1; assay: EGR1 protein western blot and immunofluorescence in hPASMC; format: cell-based, human; settings: SMCs (hPASMC); MEK inhibitor 10 μM; EMAP II 1 hour
Procedure: (§4) RAW 264.7 (ATCC) mouse macrophages and Human Embryonic Kidney (HEK) 293T cells were cultured in DMEM media with 10% fetal bovine serum […] and glutamine HEPES buffer and beta-mercaptoethanol were added to the growth medium used for RAW 264.7 macrophages. Primary human pulmonary artery smooth muscle cells (hPASMC) purchased from Lonza (Walkersville, Md.) were cultured in complete growth medium containing smooth muscle growth media-2 (SmGM-2) with 10% FBS and growth factors provided as a kit by the supplier (Lonza, (Walkersville, Md.). THP-1 human monocyte cells were cultured in RPMI 1640 with 10% FBS and glutamine Cells were cultured in a humidified atmosphere with 5% CO2 at 370 C. For all studies passages 5-14 were used for RAW 264.7 and passages 5-10 were used for hPASMCs. For treatment studies, subconfluent cells plated in multi-well plates were serum starved and if required, pretreated for with inhibitors before stimulating with 2 μg/mL recombinant EMAP II.
(§5) After appropriate treatments, protein lysates were prepared by using RIPA buffer supplemented with phosphatase and protease inhibitors (Thermo Fischer Scientific). Alpha-tubulin was used as a loading control. For nuclear and cytoplasmic fractionation, NE-PER kit from Thermo Fischer Scientific was used. Western blots were performed according to standard methods and quantified using densitometry using Image Studio Lite software from LI-COR Biosciences.
Primary hPASMCs cells or human THP-1 macrophages were seeded in Nunc Lab-Tek™ II 4-well imaging plates (Thermo Fisher Scientific) chamber well slides and cultured in growth medium. After the serum starvation cells were stimulated with EMAP II. Treated cells were rinsed with PBS and fixed with 4% paraformaldehyde at room temperature for 15 min and permeabilized with 0.1% Triton X-100 at room temperature for 10 min After washing with PBS three times, the cells were incubated with EGR1, 1amin, or pSphK1 antibody at 40C overnight. The cells were then rinsed with PBS three times and subsequently incubated with respective secondary antibody conjugated with Alex Fluor 647 and 488 or Phalloidin 488 at room temperature for 1 h. The cells were rinsed with PBS three times and coverslips were mounted with SlowFade Gold Antifade Mountant with DAPI (Thermo Fischer Scientific) and the cells were examined under Olympus microscope with 40× for EGR1 expression and with 60× for pSphK1 water immersion.
Knockdown of endogenous EGR1 was carried out by transfecting with 25 nM final concentration of ON-TARGETplus siRNAs specific for EGR1 or non-targeting control purchased from GE Dharmacon (Lafayette,CO) using Viromer Blue (Lipocalyx) per manufacturer's instructions. Cells were stimulated with EMAP II 48 h post-transfection.
RAW 264.7 (ATCC) mouse macrophages and HEK-293T (ATCC) cells were cultured in DMEM media with 10% (v/v) fetal bovine serum (FBS) and 2 mM glutamine HEPES buffer and beta-mercaptoethanol were added to the growth medium used for RAW 264.7 macrophages. […]

[3] = test system: EGR1; assay: EGR1 transcripts qRT-PCR in hPASMC; format: cell-based, human; settings: SMCs; 10 μM pretreatment; EMAP II 45 minutes; normalized against Gapdh
Procedure: as §1, §2, §3

[4] = test system: EGR1; assay: EGR1 protein western blot (whole cell lysates, nuclear fractions) in RAW 264.7 macrophages; format: cell-based, mouse; settings: macrophages (RAW 264.7); MEK inhibitor 10 μM; EMAP II 2 hours
Procedure: as §4, §5
RAW 264.7 (ATCC) mouse macrophages and HEK-293T (ATCC) cells were cultured in DMEM media with 10% (v/v) fetal bovine serum (FBS) and 2 mM glutamine HEPES buffer and beta-mercaptoethanol were added to the growth medium used for RAW 264.7 macrophages. Primary human pulmonary artery smooth muscle cells (hPASMC) purchased from Lonza (Walkersville, Md.) were cultured in complete growth medium containing smooth muscle growth media-2 (SmGM-2) with 10% FBS and growth factors provided as a kit by the supplier (Lonza, (Walkersville, Md.). THP-1 human monocyte cells were cultured in RPMI 1640 with 10% FBS and glutamine Cells were cultured in a humidified atmosphere with 5% CO2 at 37° C. For all studies passages 5-14 were used for RAW 264.7 and passages 5-10 were used for hPASMCs. For treatment studies, subconfluent cells plated in multi-well plates were serum starved and if required, pretreated with inhibitors before stimulation with 2 μg/mL recombinant EMAP II.
as §5, with “Fisher” for “Fischer”, “For nuclear and cytoplasmic fractionation, NE-PER kit from Thermo Fischer Scientific was used.” left out

[5] = test system: pSTAT3 (Y705); assay: EMAP II induced pSTAT3 western blot in RAW 264.7 macrophages; format: cell-based, mouse; settings: RAW 264.7 macrophages, EMAP II 24 hours
Procedure: as §5
as §5, with “(Thermo Fisher” for “(Thermo Fischer”

[6] = test system: STAT3 transcription reporter plasmid; assay: STAT3 transcription reporter luciferase assay in HEK293-T cells; format: cell-based, human; settings: inhibitor pretreatment 1 hour, luciferase after 24 hours
Procedure: (§6) Transfection and luciferase assay. Human Embryonic Kidney (HEK) 293-T cells cultured in DMEM media containing 10% serum were reverse co-transfected with pGL4.47fluc2P/SIE/Hygrol and pGL4.74 [hRluc/TK] using Attractene Transfection Reagent (301005, Qiagen) as per manufacturer's protocol. Pretreated with inhibitors for 1 hour as required. After the treatment cells were incubated for 24 hours and luciferase activity was measured using Dual-Glo Luciferase Assay (E2920, Promega) per manufacturer's guidelines.
as §6, with “HEK” for “Transfection and luciferase assay. Human Embryonic Kidney (HEK)”

CC(=O)Nc1cccc(-n2c(=O)n(C3CC3)c(=O)c3c(Nc4ccc(I)cc4F)n(C)c(=O)c(C)c32)c1 [iERK1, Trametinib, reference compound]
EMAP II induced EGR1 transcription [1]: inhibited
EMAP II induced EGR1 protein expression [2]: blocked
EMAP II induced EGR1 transcription [3]: inhibited
EMAP II induced EGR1 protein expression [4]: blocked

O=C(NOCC1CC1)c1cc(Br)c(F)c(F)c1Nc1ccc(I)cc1Cl [iERK, PD184161, reference compound]
EMAP II induced EGR1 protein expression [2]: blocked
EMAP II induced pSTAT3 (pSTAT3/STAT3) ([5]; inhibitor pretreatment 10 μM): significantly inhibited
EMAP II induced EGR1 protein expression [4]: blocked

N#CC[C@H](C1CCCC1)n1cc(-c2ncnc3[nH]ccc23)cn1 [iJAK1/2, Ruxolitinib]
EMAP II induced pSTAT3 (pSTAT3/STAT3) ([5]; inhibitor pretreatment 1 μM): significantly inhibited

CCCCCCc1cccc(NC(=O)[C@H](N)CCP(=O)(O)O)c1 [iS1PR1, W146]
EMAP II induced pSTAT3 (pSTAT3/STAT3) ([5]; inhibitor pretreatment 1 μM): significantly inhibited

Cc1nn(C)c2nc(NNC(=O)Nc3cc(Cl)nc(Cl)c3)cc(C(C)C)c12 [iS1PR2, JTE 013]
EMAP II induced pSTAT3 (pSTAT3/STAT3) ([5]; inhibitor pretreatment 1 μM): significantly inhibited

CC(C)(C)C(=O)/C(=N/c1ccc(Cl)cc1)NNc1ccc(Cl)cc1 [iS1PR3, TY 52156]
EMAP II induced pSTAT3 (pSTAT3/STAT3) ([5]; inhibitor pretreatment 1 μM): significantly inhibited

Cc1cc(CS(=O)(=O)c2ccccc2)cc(OCc2ccc(CN3CCC[C@@H]3CO)cc2)c1 [iSphK1, PF543]
EMAP II induced luminescence of STAT3 transcription reporter plasmid [6]: significantly inhibited
EMAP II induced pSTAT3 (pSTAT3/STAT3) ([5]; inhibitor pretreatment 100 nM): significantly inhibited
EMAP II induced pSTAT3 (pSTAT3/STAT3) ([5]; inhibitor pretreatment 100 nM, listed as PF543): inhibited
EMAP II induced pSTAT3 (pSTAT3/STAT3) ([5]; inhibitor pretreatment 100 nM, listed as iSPHK1): significantly inhibited
